# Laboratory results from ChEMBL document CHEMBL4308841, “Synthesis, in vitro antiproliferative activity, and kinase inhibitory effects of pyrazole-containing diarylureas and diarylamides” (Eur J Med Chem, 2018).
# Assays:
# A549 [1] = assay: Growth inhibition of human A549/ATCC cells assessed as cell growth at 100 uM incubated for 48 hrs by sulforhodamine B assay relative to control; type: functional; settings: A549, 48 h, read-out: Activity
# UO-31 = assay: Growth inhibition of human UO31 cells assessed as cell growth at 100 uM incubated for 48 hrs by sulforhodamine B assay relative to control; type: functional; settings: UO-31, 48 h, read-out: Activity
# Malme-3M = assay: Growth inhibition of human MALME-3M cells assessed as cell growth at 0.1 uM incubated for 48 hrs by sulforhodamine B assay relative to control; type: functional; settings: read-out: Activity
# SK-MEL-2 = assay: Growth inhibition of human SK-MEL-2 cells incubated for 48 hrs by sulforhodamine B assay; type: functional, cell-based; settings: SK-MEL-2, 48 h
# CAKI-1 = assay: Growth inhibition of human Caki1 cells assessed as cell growth at 1 uM incubated for 48 hrs by sulforhodamine B assay relative to control; type: functional; settings: CAKI-1, 48 h, read-out: Activity
# MOLT-4 = assay: Growth inhibition of human MOLT4 cells incubated for 48 hrs by sulforhodamine B assay; type: functional, cell-based; settings: MOLT-4, 48 h
# NCI/ADR-RES = assay: Growth inhibition of human NCI/ADR-RES cells assessed as cell growth at 1 uM incubated for 48 hrs by sulforhodamine B assay relative to control; type: functional; settings: read-out: Activity
# DU-145 [2] = assay: Growth inhibition of human DU145 cells incubated for 48 hrs by sulforhodamine B assay; type: functional, cell-based; settings: DU-145, 48 h
# PC-3 [3] = assay: Growth inhibition of human PC3 cells assessed as cell growth at 100 uM incubated for 48 hrs by sulforhodamine B assay relative to control; type: functional; settings: PC-3, 48 h, read-out: Activity
# SF-295 = assay: Growth inhibition of human SF295 cells assessed as cell growth at 100 uM incubated for 48 hrs by sulforhodamine B assay relative to control; type: functional; settings: SF-295, 48 h, read-out: Activity
# PC-3 [4] = assay: Growth inhibition of human PC3 cells incubated for 48 hrs by sulforhodamine B assay; type: functional, cell-based; settings: PC-3, 48 h
# HCC 2998 = assay: Growth inhibition of human HCC2998 cells incubated for 48 hrs by sulforhodamine B assay; type: functional, cell-based; settings: HCC 2998, 48 h
# Hs-578T [5] = assay: Growth inhibition of human Hs578T cells incubated for 48 hrs by sulforhodamine B assay; type: functional, cell-based
# MDA-MB-231 = assay: Growth inhibition of human MDA-MB-231 cells assessed as cell growth at 100 uM incubated for 48 hrs by sulforhodamine B assay relative to control; type: functional; settings: MDA-MB-231, 48 h, read-out: Activity
# ACHN = assay: Growth inhibition of human ACHN cells assessed as cell growth at 100 uM incubated for 48 hrs by sulforhodamine B assay relative to control; type: functional; settings: read-out: Activity
# RXF 393 = assay: Growth inhibition of human RXF393 cells assessed as cell growth at 1 uM incubated for 48 hrs by sulforhodamine B assay relative to control; type: functional; settings: RXF 393, 48 h, read-out: Activity
# Hs-578T [6] = assay: Growth inhibition of human Hs578T cells assessed as cell growth at 100 uM incubated for 48 hrs by sulforhodamine B assay relative to control; type: functional; settings: read-out: Activity
# HL-60(TB) [7] = assay: Growth inhibition of human HL-60(TB) cells assessed as cell growth at 0.1 uM incubated for 48 hrs by sulforhodamine B assay relative to control; type: functional; settings: HL-60, 48 h, read-out: Activity
# OVCAR-4 = assay: Growth inhibition of human OVCAR4 cells assessed as cell growth at 100 uM incubated for 48 hrs by sulforhodamine B assay relative to control; type: functional; settings: OVCAR-4, 48 h, read-out: Activity
# SF-268 = assay: Growth inhibition of human SF268 cells assessed as cell growth at 100 uM incubated for 48 hrs by sulforhodamine B assay relative to control; type: functional; settings: SF-268, 48 h, read-out: Activity
# NCI-H522 = assay: Growth inhibition of human NCI-H522 cells assessed as cell growth at 0.01 uM incubated for 48 hrs by sulforhodamine B assay relative to control; type: functional; settings: NCI-H522, 48 h, read-out: Activity
# MCF7 = assay: Growth inhibition of human MCF7 cells assessed as cell growth at 1 uM incubated for 48 hrs by sulforhodamine B assay relative to control; type: functional; settings: MCF7, 48 h, read-out: Activity
# DU-145 [8] = assay: Growth inhibition of human DU145 cells assessed as cell growth at 1 uM incubated for 48 hrs by sulforhodamine B assay relative to control; type: functional; settings: DU-145, 48 h, read-out: Activity
# RPMI-8226 = assay: Growth inhibition of human RPMI8226 cells assessed as cell growth at 0.1 uM incubated for 48 hrs by sulforhodamine B assay relative to control; type: functional; settings: RPMI-8226, 48 h, read-out: Activity
# A549 [9] = assay: Growth inhibition of human A549/ATCC cells incubated for 48 hrs by sulforhodamine B assay; type: functional, cell-based; settings: A549, 48 h
# OVCAR-3 = assay: Growth inhibition of human OVCAR3 cells assessed as cell growth at 0.1 uM incubated for 48 hrs by sulforhodamine B assay relative to control; type: functional; settings: OVCAR-3, 48 h, read-out: Activity
# SW-620 = assay: Growth inhibition of human SW620 cells assessed as cell growth at 100 uM incubated for 48 hrs by sulforhodamine B assay relative to control; type: functional; settings: SW-620, 48 h, read-out: Activity
# HL-60(TB) [10] = assay: Growth inhibition of human HL-60(TB) cells assessed as cell growth at 0.01 uM incubated for 48 hrs by sulforhodamine B assay relative to control; type: functional; settings: HL-60, 48 h, read-out: Activity
# [11] = read-out: LC50 (the source's name)
# [12] = read-out: pLC50 (the source's name) (converted)
structure (smiles),measurement,setting,value
O=C(Nc1cccc(-n2cc(-c3ccncc3)c(-c3cc(O)cc(Cl)c3)n2)c1)Nc1ccc(Cl)c(C(F)(F)F)c1,growth at 100 µM,A549 [1],-45%
same,growth at 100 µM,UO-31,-73%
same,growth at 0.1 µM,Malme-3M,81%
same,GI50,SK-MEL-2; read-out: GI50,2.2 µM
same,CC50,SK-MEL-2; [11],94.2 µM
same,TGI,SK-MEL-2; read-out: TGI,45.5 µM
same,GI50,SK-MEL-2; read-out: pGI50 (converted),2.24 µM
same,CC50,SK-MEL-2; [12],9.33 µM
same,TGI,SK-MEL-2; read-out: pTGI (converted),4.57 µM
same,growth at 1 µM,CAKI-1,98%
same,GI50,MOLT-4; read-out: GI50,1.99 µM
same,CC50,MOLT-4; [11],> 100 µM
same,TGI,MOLT-4; read-out: TGI,58.1 µM
same,GI50,MOLT-4; read-out: pGI50 (converted),2 µM
same,CC50,MOLT-4; [12],> 100 µM
same,TGI,MOLT-4; read-out: pTGI (converted),5.75 µM
same,growth at 1 µM,NCI/ADR-RES,97%
same,GI50,DU-145 [2]; read-out: GI50,3.77 µM
same,CC50,DU-145 [2]; [11],55.8 µM
same,TGI,DU-145 [2]; read-out: TGI,11.7 µM
same,GI50,DU-145 [2]; read-out: pGI50 (converted),3.31 µM
same,CC50,DU-145 [2]; [12],56.2 µM
same,TGI,DU-145 [2]; read-out: pTGI (converted),11.7 µM
same,growth at 100 µM,PC-3 [3],-83%
same,growth at 100 µM,SF-295,-80%
same,IC50,PC-3 [4],2.1 µM
same,GI50,PC-3 [4]; read-out: GI50,2.1 µM
same,CC50,PC-3 [4]; [11],90.3 µM
same,TGI,PC-3 [4]; read-out: TGI,84.2 µM
same,GI50,PC-3 [4]; read-out: pGI50 (converted),2.63 µM
same,CC50,PC-3 [4]; [12],79.4 µM
same,TGI,PC-3 [4]; read-out: pTGI (converted),6.46 µM
same,GI50,HCC 2998; read-out: GI50,3.93 µM
same,CC50,HCC 2998; [11],43 µM
same,TGI,HCC 2998; read-out: TGI,13.4 µM
same,GI50,HCC 2998; read-out: pGI50 (converted),3.89 µM
same,CC50,HCC 2998; [12],42.7 µM
same,TGI,HCC 2998; read-out: pTGI (converted),13.5 µM
same,GI50,Hs-578T [5]; read-out: GI50,3.2 µM
same,CC50,Hs-578T [5]; [11],> 100 µM
same,TGI,Hs-578T [5]; read-out: TGI,> 100 µM
same,GI50,Hs-578T [5]; read-out: pGI50 (converted),3.31 µM
same,CC50,Hs-578T [5]; [12],> 100 µM
same,TGI,Hs-578T [5]; read-out: pTGI (converted),> 100 µM
same,growth at 100 µM,MDA-MB-231,-38%
same,growth at 100 µM,ACHN,-25%
same,growth at 1 µM,RXF 393,58%
same,growth at 100 µM,Hs-578T [6],1%
same,growth at 0.1 µM,HL-60(TB) [7],89%
same,growth at 100 µM,OVCAR-4,-10%
same,growth at 100 µM,SF-268,-27%
same,growth at 0.01 µM,NCI-H522,56%
same,growth at 1 µM,MCF7,91%
same,growth at 1 µM,DU-145 [8],96%
same,growth at 0.1 µM,RPMI-8226,101%
same,IC50,A549 [9],2.33 µM
same,GI50,A549 [9]; read-out: GI50,2.33 µM
same,CC50,A549 [9]; [11],> 100 µM
same,TGI,A549 [9]; read-out: TGI,92 µM
same,GI50,A549 [9]; read-out: pGI50 (converted),2.34 µM
same,CC50,A549 [9]; [12],> 100 µM
same,TGI,A549 [9]; read-out: pTGI (converted),9.12 µM
same,growth at 0.1 µM,OVCAR-3,95%
same,growth at 100 µM,SW-620,-58%
same,growth at 0.01 µM,HL-60(TB) [10],95%
COc1cc(Cl)cc(-c2nn(-c3cccc(NC(=O)Nc4cc(C(F)(F)F)cc(C(F)(F)F)c4)c3)cc2-c2ccncc2)c1,growth at 100 µM,A549 [1],-68%
same,growth at 100 µM,UO-31,-82%
same,growth at 0.1 µM,Malme-3M,87%
same,IC50,SK-MEL-2,0.66 µM
same,GI50,SK-MEL-2; read-out: GI50,0.658 µM
same,TGI,SK-MEL-2; read-out: TGI,2.7 µM
same,GI50,SK-MEL-2; read-out: pGI50 (converted),0.661 µM
same,CC50,SK-MEL-2; [12],9.33 µM
same,TGI,SK-MEL-2; read-out: pTGI (converted),2.69 µM
same,growth at 1 µM,CAKI-1,22%
same,IC50,MOLT-4,0.31 µM
same,GI50,MOLT-4; read-out: GI50,0.306 µM
same,CC50,MOLT-4; [11],> 100 µM
same,TGI,MOLT-4; read-out: TGI,1.64 µM
same,GI50,MOLT-4; read-out: pGI50 (converted),0.302 µM
same,CC50,MOLT-4; [12],> 100 µM
same,TGI,MOLT-4; read-out: pTGI (converted),1.62 µM
same,growth at 1 µM,NCI/ADR-RES,48%
same,IC50,DU-145 [2],0.47 µM
same,GI50,DU-145 [2]; read-out: GI50,0.459 µM
same,TGI,DU-145 [2]; read-out: TGI,10.6 µM
same,GI50,DU-145 [2]; read-out: pGI50 (converted),0.468 µM
same,CC50,DU-145 [2]; [12],38.9 µM
same,TGI,DU-145 [2]; read-out: pTGI (converted),10.7 µM
same,growth at 100 µM,PC-3 [3],-44%
same,growth at 100 µM,SF-295,-63%
same,IC50,PC-3 [4],0.3 µM
same,GI50,PC-3 [4]; read-out: GI50,0.297 µM
same,CC50,PC-3 [4]; [11],> 100 µM
same,TGI,PC-3 [4]; read-out: TGI,1.63 µM
same,GI50,PC-3 [4]; read-out: pGI50 (converted),0.295 µM
same,CC50,PC-3 [4]; [12],> 100 µM
same,TGI,PC-3 [4]; read-out: pTGI (converted),1.62 µM
same,IC50,HCC 2998,0.62 µM
same,GI50,HCC 2998; read-out: GI50,0.622 µM
same,TGI,HCC 2998; read-out: TGI,4.95 µM
same,GI50,HCC 2998; read-out: pGI50 (converted),0.617 µM
same,CC50,HCC 2998; [12],42.7 µM
same,TGI,HCC 2998; read-out: pTGI (converted),5.01 µM
same,IC50,Hs-578T [5],1.4 µM
same,GI50,Hs-578T [5]; read-out: GI50,1.4 µM
same,TGI,Hs-578T [5]; read-out: TGI,7.26 µM
same,GI50,Hs-578T [5]; read-out: pGI50 (converted),1.45 µM
same,CC50,Hs-578T [5]; [12],> 100 µM
same,TGI,Hs-578T [5]; read-out: pTGI (converted),7.24 µM
same,growth at 100 µM,MDA-MB-231,-70%
same,growth at 100 µM,ACHN,-38%
same,growth at 1 µM,RXF 393,50%
same,growth at 100 µM,Hs-578T [6],-25%
same,growth at 0.1 µM,HL-60(TB) [7],88%
same,growth at 100 µM,OVCAR-4,-22%
same,growth at 100 µM,SF-268,-88%
same,growth at 0.01 µM,NCI-H522,93%
same,growth at 1 µM,MCF7,21%
same,growth at 1 µM,DU-145 [8],27%
same,growth at 0.1 µM,RPMI-8226,87%
same,IC50,A549 [9],0.37 µM
same,GI50,A549 [9]; read-out: GI50,0.372 µM
same,CC50,A549 [9]; [11],3.48 µM
same,TGI,A549 [9]; read-out: TGI,4.68 µM
same,GI50,A549 [9]; read-out: pGI50 (converted),0.372 µM
same,CC50,A549 [9]; [12],34.7 µM
same,TGI,A549 [9]; read-out: pTGI (converted),4.68 µM
same,growth at 0.1 µM,OVCAR-3,95%
same,growth at 100 µM,SW-620,-72%
same,growth at 0.01 µM,HL-60(TB) [10],92%
